From the NIST ThermoML archive (doi:10.1021/acs.jced.7b00709) come the findings set out here.

Numbers after ± are expanded uncertainties.

A short description of this data set: xn = mol fraction of the nth substance listed. Conditions: 298.2 K, 100 kPa, Liquid, Pycnometric method.

As for `Cc1ccc(-c2ncc(Cl)cc2-c2ccc(S(C)(=O)=O)cc2)cn1` [etoricoxib] + CC(O)CO, the mass density (x1 = 0.06047) is listed as 1059.7 ± 1.3 kg/m3.

For `Cc1ccc(-c2ncc(Cl)cc2-c2ccc(S(C)(=O)=O)cc2)cn1` [etoricoxib] + CO, for the setting “x1 = 0.03786”, the mass density came out at 805 ± 0.9 kg/m3.

As for `Cc1ccc(-c2ncc(Cl)cc2-c2ccc(S(C)(=O)=O)cc2)cn1` [etoricoxib] + O, the mass density (x1 = 1.58e-05) worked out at 994.8 ± 1 kg/m3.

As to `Cc1ccc(-c2ncc(Cl)cc2-c2ccc(S(C)(=O)=O)cc2)cn1` [etoricoxib] + OCC(O)CO, the mass density (x1 = 0.05656) is recorded as 1298 ± 1.6 kg/m3.
